Experimental data as given in PubChem BioAssay AID1963986 (Molecular Pharmacology Branch, DTP, NCI, 2024).

Test system: 171881-019-R-J1-PDC tumor spheroid viability
Assay: Anticancer human tumor 171881-019-R-J1-PDC patient-derived invasive breast carcinoma cell line growth inhibition [PI3K]
Details: spheroids with HUVEC and MSC; for IC50: curve of first compound; for viability, T/C: stronger effect = lower value
How it was run: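 Spheroid viability read-out. Co-cultures contained the tumor line plus HUVEC and human MSCs. Each agent was paired with a PI3K inhibitor (inavolisib, alpelisib, duvelisib, copanlisib) across half-log dilutions starting at clinical Cmax, or at 10 microM when Cmax was unknown.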

[1] = second compound 0.00316 µM, first compound 0.0316 µM
[2] = second compound 0.00316 µM, first compound 0.1 µM
[3] = second compound 0.01 µM, first compound 0.0316 µM
[4] = second compound 0.01 µM, first compound 0.1 µM
[5] = second compound 0.0316 µM, first compound 0.0316 µM
[6] = second compound 0.0316 µM, first compound 0.1 µM
[7] = second compound 0.1 µM, first compound 0.0316 µM
[8] = second compound 0.1 µM, first compound 0.1 µM
[9] = second compound 0.316 µM, first compound 0.0316 µM
[10] = second compound 0.316 µM, first compound 0.1 µM
[11] = second compound 1 µM, first compound 0.0316 µM
[12] = second compound 1 µM, first compound 0.1 µM
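Further: spheroids exposed to compound for 7 days before viability read.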
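Wherever viability, T/C is given: 100% = DMSO vehicle-treated spheroids.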

Work on `C[C@@H](NC(=O)c1ncnc(N)c1Cl)c1ncc(C(=O)Nc2cc(C(F)(F)F)c(Cl)cn2)s1` + COc1c(OCCCN2CCOCC2)ccc2c3n(c(=NC(=O)c4cnc(N)nc4)nc12)CCN3 yielded an IC50 (second compound 0.00316 µM) of 2360 nM, an IC50 (second compound 0.01 µM) of 234 nM and an IC50 (second compound 0.0316 µM) of under 31.6 nM. For the same molecule, the IC50 (second compound 0.1 µM) was under 31.6 nM, the IC50 (second compound 0.316 µM) was under 31.6 nM and the IC50 (second compound 1 µM) was under 31.6 nM. The viability, T/C [1] was 62.5%, the viability, T/C [2] was 78.9% and the viability, T/C (second compound 0.00316 µM, first compound 0.316 µM) was 67.5%. The viability, T/C (second compound 0.00316 µM, first compound 1 µM) was 62.2%, the viability, T/C (second compound 0.00316 µM, first compound 3.16 µM) was 45.9% and the viability, T/C (second compound 0.00316 µM, first compound 10 µM) was 27.2%. For the same molecule, the viability, T/C [3] was 50.9%, the viability, T/C [4] was 49.9% and the viability, T/C (second compound 0.01 µM, first compound 0.316 µM) was 51.3%. The viability, T/C (second compound 0.01 µM, first compound 1 µM) was 43.4%, the viability, T/C (second compound 0.01 µM, first compound 3.16 µM) was 29.9% and the viability, T/C (second compound 0.01 µM, first compound 10 µM) was 17.9%. For the same molecule, the viability, T/C [5] was 27.5%, the viability, T/C [6] was 26.9% and the viability, T/C (second compound 0.0316 µM, first compound 0.316 µM) was 26%. The viability, T/C (second compound 0.0316 µM, first compound 1 µM) was 20.8%, the viability, T/C (second compound 0.0316 µM, first compound 3.16 µM) was 16% and the viability, T/C (second compound 0.0316 µM, first compound 10 µM) was 7.51%. The viability, T/C [7] was 9.3%, the viability, T/C [8] was 8.92% and the viability, T/C (second compound 0.1 µM, first compound 0.316 µM) was 5.88%. For the same molecule, the viability, T/C (second compound 0.1 µM, first compound 1 µM) was 7.2%, the viability, T/C (second compound 0.1 µM, first compound 3.16 µM) was 4.61% and the viability, T/C (second compound 0.1 µM, first compound 10 µM) was 2.13%. The viability, T/C [9] was 2.53%, the viability, T/C [10] was 2.04% and the viability, T/C (second compound 0.316 µM, first compound 0.316 µM) was 2.28%. It also gave a viability, T/C (second compound 0.316 µM, first compound 1 µM) of 2.25%, a viability, T/C (second compound 0.316 µM, first compound 3.16 µM) of 1.53% and a viability, T/C (second compound 0.316 µM, first compound 10 µM) of 1.06%. It also gave a viability, T/C [11] of 1.22%, a viability, T/C [12] of 1.54% and a viability, T/C (second compound 1 µM, first compound 0.316 µM) of 1.62%. The viability, T/C (second compound 1 µM, first compound 1 µM) was 1.3%, the viability, T/C (second compound 1 µM, first compound 3.16 µM) was 0.85% and the viability, T/C (second compound 1 µM, first compound 10 µM) was 1.04%.

`Cn1ncnc1[C@H]1c2n[nH]c(=O)c3cc(F)cc(c23)N[C@@H]1c1ccc(F)cc1` + COc1c(OCCCN2CCOCC2)ccc2c3n(c(=NC(=O)c4cnc(N)nc4)nc12)CCN3 gave an IC50 (second compound 0.00316 µM) of over 100 nM, an IC50 (second compound 0.01 µM) of under 0.316 nM and an IC50 (second compound 0.0316 µM) of under 0.316 nM. For the same molecule, the IC50 (second compound 0.1 µM) was under 0.316 nM, the IC50 (second compound 0.316 µM) was under 0.316 nM and the IC50 (second compound 1 µM) was under 0.316 nM. The viability, T/C (second compound 0.00316 µM, first compound 0.000316 µM) was 65.8%, the viability, T/C (second compound 0.00316 µM, first compound 0.001 µM) was 69.5% and the viability, T/C (second compound 0.00316 µM, first compound 0.00316 µM) was 62.6%. It also gave a viability, T/C (second compound 0.00316 µM, first compound 0.01 µM) of 75%, a viability, T/C [1] of 59.7% and a viability, T/C [2] of 53.5%. The viability, T/C (second compound 0.01 µM, first compound 0.000316 µM) was 43.3%, the viability, T/C (second compound 0.01 µM, first compound 0.001 µM) was 47.2% and the viability, T/C (second compound 0.01 µM, first compound 0.00316 µM) was 43.6%. It also gave a viability, T/C (second compound 0.01 µM, first compound 0.01 µM) of 49.6%, a viability, T/C [3] of 41.7% and a viability, T/C [4] of 42%. The viability, T/C (second compound 0.0316 µM, first compound 0.000316 µM) was 24.2%, the viability, T/C (second compound 0.0316 µM, first compound 0.001 µM) was 24.2% and the viability, T/C (second compound 0.0316 µM, first compound 0.00316 µM) was 21.8%. The viability, T/C (second compound 0.0316 µM, first compound 0.01 µM) was 24.2%, the viability, T/C [5] was 23.6% and the viability, T/C [6] was 20.2%. For the same molecule, the viability, T/C (second compound 0.1 µM, first compound 0.000316 µM) was 7.63%, the viability, T/C (second compound 0.1 µM, first compound 0.001 µM) was 7.42% and the viability, T/C (second compound 0.1 µM, first compound 0.00316 µM) was 8.65%. The viability, T/C (second compound 0.1 µM, first compound 0.01 µM) was 7.87%, the viability, T/C [7] was 7.14% and the viability, T/C [8] was 6.55%. The viability, T/C (second compound 0.316 µM, first compound 0.000316 µM) was 2.06%, the viability, T/C (second compound 0.316 µM, first compound 0.001 µM) was 1.56% and the viability, T/C (second compound 0.316 µM, first compound 0.00316 µM) was 1.67%. It also gave a viability, T/C (second compound 0.316 µM, first compound 0.01 µM) of 1.78%, a viability, T/C [9] of 2.25% and a viability, T/C [10] of 1.69%. The viability, T/C (second compound 1 µM, first compound 0.000316 µM) was 1.89%, the viability, T/C (second compound 1 µM, first compound 0.001 µM) was 1.19% and the viability, T/C (second compound 1 µM, first compound 0.00316 µM) was 1.15%. For the same molecule, the viability, T/C (second compound 1 µM, first compound 0.01 µM) was 1.21%, the viability, T/C [11] was 1.01% and the viability, T/C [12] was 0.97%.
